This test relates to Plasmodium berghei. Kind of test: Luciferase/luciferin-expressing antifolate-resistant parasites were used to infect a culture of HepG2 cells that were pre-incubated with compounds. Infected hepatocytes emit light due to the luciferase reaction. Assay results are presented as the percent inhibition of light emission compared to control. […]. It counts as functional. As to conditions: sporozoite; for IC90: read-out: LUCIFERASE INFECTION ASSAY - IC90.

The mark [1] stands for this setting: read-out: LUCIFERASE INFECTION ASSAY - IC50.

Broadly, the IC50 is the point on the concentration scale where inhibition reaches its midpoint. The term IC90 denotes the point of the concentration-response curve where the effect stands at 90%. Turning to `Cc1nc(C(C)(C)C)nc2sc(C(=O)NNC(=O)c3ccccn3)c(C)c12`, the IC90 was greater than 10 µM. Further, the IC50 under setting [1] is 8.36 µM.

As to `c1ccc(-c2cc(-c3ccc(NC4=NCCCS4)cc3)nc3ccccc23)cc1`, the IC90 is 9.46 µM. The half-inhibitory concentration (IC50) (PBLUC_HILL_SLOPE 28.5, PBLUC_R_SQUARED 0.262, read-out: LUCIFERASE INFECTION ASSAY - IC50) is 8.76 µM.

On to `Cc1nc(NCCCc2n[nH]c(N)c2C#N)c2c(-c3ccccc3)csc2n1`, for which the IC90 was found to be 9.77 µM. For the same compound, the IC50 (PBLUC_HILL_SLOPE 3.76, PBLUC_R_SQUARED 0.424, read-out: LUCIFERASE INFECTION ASSAY - IC50) turned out to be 5.44 µM.

On to `CN(C)c1cccc(-c2cnc3cnc(-c4cccc(C(N)=O)c4)cn23)c1`, for which the IC90 was greater than 9.23 µM. For the same compound, the IC50 (PBLUC_HILL_SLOPE 15.5, PBLUC_R_SQUARED 0.533, read-out: LUCIFERASE INFECTION ASSAY - IC50) turned out to be 8.74 µM.

For `Cc1c(Cl)cccc1/N=C1\SCCN1C(=O)C(c1ccccc1)c1ccccc1`, the IC90 is greater than 10 µM. For the same compound, the IC50 (HEPG2TOX_HILL_SLOPE 4.09, HEPG2TOX_R_SQUARED 0.235, read-out: LUCIFERASE INFECTION ASSAY - IC50) is greater than 10 µM.

Regarding `COc1ccc(-c2cnc3cnc(-c4cccc(NS(C)(=O)=O)c4)cn23)cn1`, the IC90 worked out at 7.13 µM. The IC50 under setting [1] turned out to be 4.3 µM.

As to `O=[N+]([O-])c1cnc(Sc2nnc(SCc3cccc(C(F)(F)F)c3)s2)s1`, the IC90 was greater than 7.56 µM. The IC50 (FFLUC_HILL_SLOPE 0.915, FFLUC_R_SQUARED 0.422, read-out: LUCIFERASE INFECTION ASSAY - IC50) was greater than 7.56 µM.

For `CNC(=O)NC(=O)c1sc(SC)c(-c2ccon2)c1C`, the IC90 is greater than 10.6 µM. Also, the IC50 under setting [1] is greater than 10.6 µM.

`COCCn1c(SC(C)C(=O)c2ccc(Br)cc2)nnc1-c1cccc(C)c1` (configuration not stated): the IC90 was greater than 10 µM. Under setting [1], the IC50 is greater than 10 µM.

Turning to `Cc1cc(C(C)(C)C)cc(C)c1C[n+]1c2n(c3ccc(C(F)(F)F)cc31)CCCCC2`, the IC90 stood at 2.85 µM. Moreover, the IC50 (HEPG2TOX_HILL_SLOPE 3.95, HEPG2TOX_R_SQUARED 0.938, PBLUC_HILL_SLOPE 4.2, PBLUC_R_SQUARED 0.767, read-out: LUCIFERASE INFECTION ASSAY - IC50) amounted to 1.69 µM.

For the compound `CN1C(=O)N(CCc2ccccc2)C(=O)C12CCN(Cc1ccc3c(c1)Cc1ccccc1-3)CC2`, the IC90 is greater than 7.09 µM. Moreover, the IC50 under setting [1] amounted to 6.49 µM.

With `Cc1c(C)n(CCCN(C)C)c2ncn3nc(COc4ccccc4)nc3c12`, the IC90 was greater than 8.72 µM. Also, where the note is “PBLUC_HILL_SLOPE 0.81, PBLUC_R_SQUARED 0.755, read-out: LUCIFERASE INFECTION ASSAY - IC50”, the IC50 was 0.821 µM.

In the case of `Clc1ccc2c(NCc3ccc(-n4cccn4)nc3)ncnc2c1`, the IC90 was greater than 10 µM. In addition, where the note is “PBLUC_HILL_SLOPE 1.57, PBLUC_R_SQUARED 0.509, read-out: LUCIFERASE INFECTION ASSAY - IC50”, the concentration for half-maximal inhibition (IC50) stood at 3.37 µM.

In the case of `O=C(c1ccc(OCc2cccnc2)cc1)N1CCc2ccccc21`, the IC90 is greater than 10 µM. For the same compound, the IC50 (HEPG2TOX_HILL_SLOPE 3.32, HEPG2TOX_R_SQUARED 0.856, read-out: LUCIFERASE INFECTION ASSAY - IC50) is greater than 10 µM.

For `COc1cccc(Nc2nccc3nc(-c4cccc(OC(F)(F)F)c4)[nH]c23)c1`, the IC90 is greater than 10 µM. Moreover, where the note is “PBLUC_HILL_SLOPE 2.87, PBLUC_R_SQUARED 0.483, read-out: LUCIFERASE INFECTION ASSAY - IC50”, the IC50 is 5.1 µM.

`Cc1ccnc(NC(=O)c2ccc(C3SCCCS3)cc2)c1`: the IC90 stood at 1.57 µM. For the same compound, the IC50 (FFLUC_HILL_SLOPE 0.47, FFLUC_R_SQUARED 0.912, PBLUC_HILL_SLOPE 0.485, PBLUC_R_SQUARED 0.898, read-out: LUCIFERASE INFECTION ASSAY - IC50) was determined as 0.0169 µM.

As for `COc1ccc(OCc2nc(-c3ccc4c(c3)C(C)(C)CCC4(C)C)cs2)cc1`, the IC90 is greater than 8.1 µM. Under setting [1], the IC50 was greater than 8.1 µM.

As for `Cc1cc(NCCN(C)C)n2nc(C(F)(F)F)c(-c3ccccc3)c2n1`, the IC90 is greater than 9.08 µM. Also, the IC50 (PBLUC_HILL_SLOPE 2.75, PBLUC_R_SQUARED 0.0665, read-out: LUCIFERASE INFECTION ASSAY - IC50) turned out to be 5.68 µM.

As to `CC(OC(=O)/C=C/c1ccc2ccccc2n1)C(=O)NC1CCCc2ccccc21` (configuration not stated), the IC90 was greater than 10 µM. The IC50 under setting [1] was greater than 10 µM.

Turning to `CCC(Sc1nnc(-c2ccccc2F)[nH]1)C(=O)Nc1ccccc1` (configuration not stated), the IC90 was greater than 10 µM. For the same compound, the IC50 under setting [1] is greater than 10 µM.

Consider `Cc1sc2nc(-c3cccnc3)nc(N(C)Cc3cccnc3)c2c1C`, for which the IC90 was 9.64 µM. Besides, the IC50 (PBLUC_HILL_SLOPE 7.84, PBLUC_R_SQUARED 0.586, read-out: LUCIFERASE INFECTION ASSAY - IC50) was 7.28 µM.

`Cc1cc(CNC(C)c2cc(F)c(Cl)cc2Cl)cc(C)c1O` (configuration not stated): the concentration for an effect of 90% (IC90) is greater than 10 µM. The IC50 under setting [1] is greater than 10 µM.

Consider `CC(C)NC(=O)C1(C)CCN1C(=O)c1ccc(-c2ccccc2)cc1` (configuration not stated), for which the concentration for an effect of 90% (IC90) was greater than 9.81 µM. Under “PBLUC_HILL_SLOPE 1.28, PBLUC_R_SQUARED 0.251, read-out: LUCIFERASE INFECTION ASSAY - IC50”, the IC50 is greater than 9.81 µM.

`O=C(NCCO)c1cccc(-c2ccc3ncc(-c4cccc(Cl)c4)n3n2)c1`: the IC90 amounted to 3.56 µM. The IC50 (HEPG2TOX_HILL_SLOPE 1.24, HEPG2TOX_R_SQUARED 0.781, PBLUC_HILL_SLOPE 15.2, PBLUC_R_SQUARED 0.219, read-out: LUCIFERASE INFECTION ASSAY - IC50) was 3.08 µM.

`N#C/C(=C\N1CCN(Cc2ccccc2)CC1)S(=O)(=O)c1ccccn1`: the IC90 is greater than 8.96 µM. Also, under “FFLUC_HILL_SLOPE 0.433, FFLUC_R_SQUARED 0.0165, read-out: LUCIFERASE INFECTION ASSAY - IC50”, the concentration for half-maximal inhibition (IC50) is greater than 8.96 µM.

`CC(=O)Nc1cccc(-c2ccc3ncc(-c4cccs4)n3n2)c1`: the IC90 is greater than 10 µM. Further, the IC50 (HEPG2TOX_HILL_SLOPE 0.699, HEPG2TOX_R_SQUARED 0.927, PBLUC_HILL_SLOPE 0.967, PBLUC_R_SQUARED 0.554, read-out: LUCIFERASE INFECTION ASSAY - IC50) came to 2.81 µM.
